Data: patent publication US9636286B2, “Antimicrobial cleanser” (Coloplast A/S, priority 2013, dated 2017)

Tests used:
[1] = system: reconstructed human epidermis (RhE) model; parameters: unit not given beside the values; conditions: known irritants and non-irritants given as examples of the scale; cited from earlier work
[2] = system: reconstructed human epidermis (RhE) model; experiment: In vitro irritancy, EpiDerm MTT ET50 Protocol (EPI-200), Example 1; assay type: cell-based
Protocol: In vitro irritancy was tested using a commercially available kit “EpiDerm MTT ET50 Protocol (EPI-200)”, available from MatTek Corporation (Ashland, Mass.). The test kit is used as a validated replacement for in vivo irritation testing otherwise known as “Draize testing”, in the EU (OECD TG439). Our method of data analysis and outcome prediction is altered slightly to determine relative differences in irritation potential between experimental neat materials tested within the same kit.
The test consists of a topical exposure of the neat experimental material to a reconstructed human epidermis (RhE) model followed by a cell viability assay. The cell viability test method is based on the enzymatic conversion of mitochondrial dehydrogenase with MTT [(3-4,5-dimethyl thiazole-2-yl) 2,5-diphenyltetrazolium bromide], resulting in a blue formazan salt, which is than extracted from the tissues and quantitated. […]
EpiDerm tissues are conditioned overnight at 37±2° C., 5% CO2, to relieve stress from the shipping process. […] After the three hour incubation in MTT, the formazan salt is extracted using 2.0 mL of isopropanol and the optical density (OD) of each sample is measured at 570 nm. Relative cell viability is calculated as a % of the mean of the negative control tissue. Dose-response curves are constructed for each sample and an ET50 value is calculated. […]

Row | Compound | ET50 (Irritancy Scale, example substances) [1] | Expected In vivo Irritancy Score ([2]; from ET50 by Irritancy Scale) | ET50 Value ([2]; neat material, exposure 1, 4 or 24 hrs, time to reduce cell viability to 50%)
1 | CCCCCCCCCCCCOS(=O)(=O)[O-].[Na+] [1% SDS, SDS] | 0.5-4 | – | –
2 | O=[N+]([O-])O [Nitric Acid] | <0.5 | – | –
3 | Triton X-100 [1.0% Triton X-100] | 4-12 | very mild (12-24) | 12.69 h
